Assay results published in PubChem BioAssay (NCI).
Values joined by “and” are separate entries in the source; they are usually repeats but may differ in a detail not shown here. Equal values may be shown once.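 Tested at 5 concentrations; 48 h exposure; 96-well plates; endpoints linearly interpolated, else capped at highest concentration. GI50 is the concentration that inhibits growth by half. TGI is the concentration that stops growth completely.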

Experiments:
Experiment in all cases: DTP human tumour cell line panel, 48 h
M14 melanoma = test system: M14 melanoma
LOX IMVI melanoma = test system: LOX IMVI melanoma
MALME-3M melanoma = test system: MALME-3M melanoma
EKVX NSCLC = test system: EKVX NSCLC
UACC-257 melanoma = test system: UACC-257 melanoma
SN12C renal = test system: SN12C renal
UO-31 renal = test system: UO-31 renal
SW-620 colon = test system: SW-620 colon
KM12 colon = test system: KM12 colon
HCC-2998 colon = test system: HCC-2998 colon

SMILES | GI50 (M14 melanoma) | TGI (M14 melanoma) | GI50 (LOX IMVI melanoma) | TGI (LOX IMVI melanoma) | GI50 (MALME-3M melanoma) | TGI (MALME-3M melanoma) | GI50 (EKVX NSCLC) | TGI (EKVX NSCLC) | GI50 (UACC-257 melanoma) | TGI (UACC-257 melanoma) | GI50 (SN12C renal) | TGI (SN12C renal) | GI50 (UO-31 renal) | TGI (UO-31 renal) | GI50 (SW-620 colon) | TGI (SW-620 colon) | GI50 (KM12 colon) | TGI (KM12 colon) | GI50 (HCC-2998 colon) | TGI (HCC-2998 colon)
O=C1c2c(O)cccc2C(C(=O)CCCCCC(=O)C2c3cccc(O)c3C(=O)c3c(O)cccc32)c2cccc(O)c21 | 7.79 µM | 2.5 µM and 16.8 µM | 1.95 µM | 8.85 µM and 7.1 µM | 8.38 µM | 5.87 µM and 15.3 µM | 5.64 µM | 3.68 µM and 19.5 µM | 3.9 µM | 2.73 µM and 10.6 µM | 10.6 µM | 9.71 µM and 30 µM | 7.85 µM | 3.88 µM and 14.5 µM | 5.44 µM | 25 µM and 14.5 µM | 1.65 µM | 3.71 µM and 5.6 µM | 2.83 µM | 25 µM and 12.7 µM
CCc1cccc(C(C)C)c1NC(=O)CC1Sc2ccccc2NC1=O (stereo not drawn) |  | > 100 µM |  | > 100 µM |  | > 100 µM |  | > 100 µM |  | > 100 µM |  | > 100 µM |  | > 100 µM |  | > 100 µM |  | > 100 µM |  | > 100 µM
C[C@@H](C1CC[C@H]2[C@@H]3[C@@H]4O[C@@H]4[C@@]4(O)CC=CC(=O)[C@]4(C)[C@H]3C[C@H](O)[C@]12C)[C@H]1C[C@]2(C)O[C@]2(C)C(=O)O1 (stereo partly drawn) |  | > 100 µM |  | > 100 µM |  | > 100 µM |  | > 100 µM |  | > 100 µM |  | > 100 µM |  | > 100 µM |  | > 100 µM |  | > 100 µM |  | > 100 µM
CC(C)C[C@H](CC(=O)O)C(=O)N[C@@H](Cc1c[nH]c2ccccc12)C(=O)N[C@@H](C)c1ccccc1 | > 25 µM | > 25 µM | > 25 µM | > 25 µM | > 25 µM | > 25 µM | > 25 µM | > 25 µM | > 25 µM | > 25 µM | > 25 µM | > 25 µM | > 25 µM | > 25 µM | > 25 µM | > 25 µM | > 25 µM | > 25 µM | > 25 µM | > 25 µM
CC12Nc3ccccc3C1=C(c1ccccc1)CC1C(=O)OC(=O)C12 (stereo not drawn) |  | > 100 µM |  | > 100 µM |  | > 100 µM |  | > 100 µM |  | > 100 µM |  | > 100 µM |  | > 100 µM |  | > 100 µM |  | > 100 µM |  | > 100 µM
CN(C)c1ccc(C(=S)c2ccc(N(C)C)cc2)cc1 | 3.33 µM | > 100 µM | 5.86 µM | 88.6 µM | 5.5 µM | > 100 µM | 16.5 µM | > 100 µM | 16.2 µM | > 100 µM | 5.91 µM | > 100 µM | 8.92 µM | > 100 µM | 3.98 µM | > 100 µM | 3.88 µM | > 100 µM | 9.66 µM | > 100 µM
CC1(C)OB(c2ccc(N(CCOS(C)(=O)=O)CCOS(C)(=O)=O)cc2)OC1(C)C | 3.01 µM | 13.7 µM | 6.98 µM | > 53.3 µM | 12.9 µM | 46.1 µM | 23.4 µM | 58.7 µM | 21.6 µM | > 60.5 µM | 9.38 µM | > 54.6 µM | 16.5 µM | > 64.6 µM | 17.1 µM | > 100 µM | 26.8 µM | > 85 µM | 15.7 µM | 49 µM
CCOC(=O)c1oc2c(OC)ccc3c2c1CCC3 |  | > 100 µM |  | > 100 µM |  | > 100 µM |  | > 100 µM |  | 10.9 µM |  | > 100 µM |  | > 100 µM |  | > 100 µM |  | > 100 µM |  | > 100 µM
CC[C@@]1(O)C(=O)OCc2c1cc1n(c2=O)Cc2cc3cc(Cl)ccc3nc2-1 | 0.00467 µM | 0.0853 µM and 0.0476 µM | 0.00191 µM |  | 0.0305 µM and 0.0444 µM | 0.818 µM and 0.564 µM | 0.282 µM and 0.302 µM | 5.73 µM and 4.9 µM | 0.0389 µM and 0.0857 µM | 0.953 µM and 1.11 µM | 0.00207 µM | 0.12 µM and 0.243 µM | 0.00266 µM | 0.0816 µM |  | 2.37 µM and 5.23 µM | 0.0485 µM and 0.127 µM | 0.195 µM and 0.446 µM | 0.0277 µM and 0.0364 µM | 0.202 µM and 0.32 µM
N#CCc1c(F)c(F)c(F)c(F)c1F |  | > 100 µM |  | > 100 µM |  | > 100 µM |  | > 100 µM |  | > 100 µM |  | > 100 µM |  | > 100 µM |  | > 100 µM |  | > 100 µM |  | > 100 µM
c1ccc2c(c1)[nH]c1cnc3c4ncccc4[nH]c3c12 |  | > 100 µM |  | > 100 µM |  | > 100 µM |  | > 100 µM |  | > 100 µM |  | > 100 µM |  | > 100 µM |  | > 100 µM |  | > 100 µM |  | > 100 µM
O=C1C=CC2(CCCCCCC2=O)CC1 (stereo not drawn) |  | > 100 µM |  | > 100 µM |  | > 100 µM |  | > 100 µM |  | > 100 µM |  | > 100 µM |  | > 100 µM |  | > 100 µM |  | > 100 µM |  | > 100 µM
C=CC(=O)N[C@@H]1CN(c2nc(Nc3cn(C)nc3OC)c3ncn(C)c3n2)C[C@H]1F | 18.7 µM | 61.6 µM | 30 µM | > 100 µM | 23.4 µM | > 100 µM | 0.273 µM | 97.9 µM | 35.8 µM | > 100 µM | 45.9 µM | > 100 µM | 10.9 µM | > 100 µM | 26.9 µM | > 100 µM | 33.6 µM | > 100 µM | 47.8 µM | > 100 µM
O=C(CCC(=O)Nc1ccccc1C(F)(F)F)N/N=C1\C(=N\NC(=O)CCC(=O)Nc2ccccc2C(F)(F)F)C(c2ccc3c(c2)OCO3)Oc2ccccc21 (stereo not drawn) |  | > 100 µM |  | > 100 µM |  | > 100 µM |  | > 100 µM |  | > 100 µM |  | > 100 µM |  | > 100 µM |  | > 100 µM |  | > 100 µM |  | > 100 µM
Oc1ccc(NC(=S)Nc2ccccc2)cc1 | > 100 µM | > 100 µM | > 100 µM | > 100 µM | > 100 µM | > 100 µM | > 100 µM | > 100 µM | > 100 µM | > 100 µM | > 100 µM | > 100 µM | > 100 µM | > 100 µM | > 100 µM | > 100 µM | > 100 µM | > 100 µM | > 100 µM | > 100 µM
